{
  "source": "patent US20230393140A1",
  "about": "“BINDING ASSAYS INVOLVING A PLURALITY OF SYNTHETIC COMPOUNDS, TARGETS, AND COUNTER TARGETS” (SRI International, priority 2020, published 2023)",
  "key": {"HepG2 cells": {"tested_on": "HepG2 cells", "test": "Confocal imaging of HepG2 cell uptake", "type": "cell-based, human", "description": "More particularly, FIG. 11B illustrates cell uptake of GalNAc (positive control), two NNP hits (ASGPR-9-4 and ASGPR-9-6) and a non-hit NNP (KRAS-1-14, negative control) in HepG2 (high ASGPR expressing) verses HEK293 (low ASGPR expressing) cells lines. FIG. 11C illustrates competition uptake assay of GalNAc and two NNP hits (ASGPR-9-4 and ASGPR-9-6) in HepG2 cells after preincubation with different concentrations of asialofetuin (a naturally occurring serum protein ASGPR ligand). Decrease in cell uptake with increasing concentrations of asialofetuin indicates blocking of ASGPR-mediated uptake. FIG. 11D illustrates example confocal images 1113, 1115, 1117, 1119 of HepG2 cell uptake (scale: x20 for the images 1113, 1115, 1117 and x40 for the image 1119). FL=fluorescein label; Cell nucleus staining with DAPI (blue). No uptake with the blank sample (DMSO) is seen at 4 degrees C."}, "[1]": {"tested_on": "ASGPR-mediated uptake in HepG2 cells", "test": "Competitive uptake assay with asialofetuin in HepG2", "type": "cell-based, human", "details": "test compound 0.3 μM", "description": "For the competitive uptake assay with the natural ligand of ASGPR (asialofetuin), cells were pre-incubated with 20 μM and 60 μM asialofetuin on ice or at 37 degrees C. for 1.5 hours, followed by the treatment with compounds for additional 2 hours before flow cytometric analysis as described above. The reduction of the uptake under asialofetuin competition was expressed by the percentage against the same treatment condition without asialofetuin."}, "[2]": {"tested_on": "HepG2 cells (high ASGPR expressing)", "test": "ASGPR uptake assay, flow cytometry, HepG2", "type": "cell-based, human", "description": "The HEK293T (human embryonic kidney cells) and human hepatoma HepG2 cells were grown according to the protocols provided by the American Type Culture Collection (ATCC). When cells reached cell were seeded at ˜1.5×10^5 cells/well in 24-well culture plate for the uptake assay. After at least 16 hours of culture to allow cell attach and equilibrate, the compound treatment was set up for the uptake assay.\nThe fluorescein-labeled NNPs or fluorescein-labeled N-acetylgalactosamine (GalNAc) recognizing ASGRPR were added to wells at indicated concentrations and incubated for 2 hours. Two plates were prepared for each treatment condition, one serving as 4 degrees C. no internalization control that was kept on ice during incubation, while the second plate was incubated at 37 degrees C. to allow for energy dependent internalization. Following the incubation period, all plates were placed on ice and washed three times with ice-cold PBS/3% BSA/2 mM EDTA and then lifted with trypsin. Cells were transferred to a 96-well round bottom plates in FACS buffer. Cells were then analyzed by flow cytometry using LSR-HJ with HTS sampler (BD Biosciences, San Jose, CA, USA). Data (mean fluorescence intensities) and further analyzed using Flowjo software (BD Biosciences, San Jose, CA, USA). The internalized fraction was expressed as the difference between the corresponding 4 degrees C. and 37 degrees C. MFIs as previously described."}, "ASGPR": {"biological_target": "T1, ASGPR (Homo sapiens, UniProt P07306)", "T1 construct": "purchased R&D Systems, Inc. 4394-AS", "T1 sequence (P07306 1-291)": "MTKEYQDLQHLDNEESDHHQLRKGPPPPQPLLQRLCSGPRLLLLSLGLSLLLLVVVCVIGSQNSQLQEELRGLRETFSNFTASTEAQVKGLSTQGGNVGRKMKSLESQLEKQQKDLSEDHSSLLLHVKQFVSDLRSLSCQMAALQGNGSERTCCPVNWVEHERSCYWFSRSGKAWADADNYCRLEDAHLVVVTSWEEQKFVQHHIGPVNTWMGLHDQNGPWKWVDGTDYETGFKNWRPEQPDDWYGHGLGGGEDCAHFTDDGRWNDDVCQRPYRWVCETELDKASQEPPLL", "test": "MST binding affinity of resynthesized NNP hits to ASGPR", "details": "read-out: KD of ASGPR hits by MST", "description": "Hit binding affinity to various targets were determined using Microscale Thermophoresis (MST). MST experiments were performed on a Monolith NT.115pico (NanoTemper Technologies GmbH, Munich, Germany). Measurements were performed at room temperature, in triplicate with incubation periods of 15, 30 and 45 minutes. […] Targets were labeled using Nanotemper Monolith 2nd Generation Protein Labeling Kits. RED-MALEIMIDE (Maleimide-647-dye) labeling kit was used for K-Ras and RED-NHS (NHS-647-dye) labeling kit was used for IL-6, IL-6R, TNFα and ASGPR. The buffer for the ASGPR contained 20 mM HEPES pH 7.4, 150 mM NaCl, 10 mM MgCl2, 2 mM CaCl2, 0.05% Pluronic F-127, and 1 mM DTT; for IL-6 contained 20 mM HEPES pH 7.4, 150 mM KCl, 10 mM MgCl2, and 0.1% Pluronic F-127; for the soluble IL-6 receptor 20 mM HEPES pH 7.4, 150 mM NaCl, 10 mM MgCl2, and 0.05% Tween-20; for K-Ras 20 mM HEPES pH 7.4, 150 mM NaCl, 10 mM MgCl2, 0.05% Tween-20 and 1 mM DTT; for TNFα 10 mM HEPES pH 7.4, 150 mM NaCl, 10 mM MgCl2, 0.05% Polysorbate-20. Triplicate data was analyzed using MO.AffinityAnalysis software (NanoTemper Technologies GmbH)."}},
  "note": "Numbered stars: 1 amine (or outer) side, 2 acyl side, 3 side chain; on linkers, the order of the positions; unused ones are H or OH. Square brackets hold non-standard residues; d marks the D form. Peptide text beside a SMILES is read from it. * marks the point of attachment. 5FAM = O=C1OC2(c3ccc(O)cc3Oc3cc(O)ccc32)c2ccc(C(=O)*)cc21; NHCH2C6H4(4-CH2CONH2) = NC(=O)Cc1ccc(CN*)cc1; X1 = O=C(Cc1ccc(CN[*:1])cc1)[*:2]",
  "data": [
    {"smiles": "CC(C)C[C@H](NC(=O)[C@@H](CCCNC(=N)N)NC(=O)[C@@H](CCCCN)NC(=O)[C@@H](CCC(=O)O)NC(=O)[C@@H](Cc1ccccc1)NC(=O)Cc1ccc(CNC(=O)[C@H](Cc2ccccc2)NC(=O)[C@@H](CO)NC(=O)[C@@H](CCC(=O)O)NC(=O)[C@H]2CCCN2C(=O)[C@@H](CC(C)C)NC(=O)c2ccc3c(c2)C(=O)OC32c3ccc(O)cc3Oc3cc(O)ccc32)cc1)C(=O)NCc1ccc(CC(=O)NCC(=O)N2CCC[C@@H]2C(=O)N[C@H](CCCNC(=N)N)C(=O)N[C@H](CO)C(=O)N[C@@H](Cc2ccccc2)C(=O)NCc2ccc(CC(=O)N[C@H](Cc3ccc(O)cc3)C(=O)N[C@@H](C(=O)N3CCC[C@@H]3C(=O)N[C@H](CCCNC(=N)N)C(=O)N[C@@H](C)C(=O)NCc3ccc(CC(=O)N[C@H](CCCNC(=N)N)C(=O)N[C@H](Cc4ccccc4)C(=O)N4CCC[C@@H]4C(=O)N[C@@H](C(=O)NCC(=O)NCc4ccc(CC(=O)N[C@H](CC(C)C)C(=O)N5CCC[C@@H]5C(=O)N[C@H](CCCNC(=N)N)C(=O)N[C@@H](C(=O)NCC(=O)NCc5ccc(CC(N)=O)cc5)[C@H](C)O)cc4)C(C)C)cc3)[C@H](C)O)cc2)cc1", "note": "[ASGPR-9-6] (5FAM-[dL][dP][dE][dS]F[X1][dF][dE][dK][dR]L[X1]G[dP][dR][dS]F[X1][dY][dT][dP][dR]A[X1][dR][dF][dP][dV]G[X1][dL][dP][dR][dT]G-{NHCH2C6H4(4-CH2CONH2)})", "values": [
      {"measurement": "HepG2 cell uptake, confocal images, 4 degrees C.", "setting": "HepG2 cells; 4 degrees C.", "result": "not at 4 °C"},
      {"measurement": "HepG2 cell uptake, confocal images, 37 degrees C.", "setting": "HepG2 cells; 37 degrees C.", "result": "intracellular uptake is observed"},
      {"measurement": "Cellular uptake with 60 μM asialofetuin", "setting": "[1]; 60 μM asialofetuin (200-fold excess)", "result": "mostly abolished"},
      {"measurement": "Cellular uptake after pre-incubation with asialofetuin", "setting": "[1]; asialofetuin 20 μM and 60 μM", "result": "decreased with increasing concentrations of asialofetuin"},
      {"measurement": "Internalization compared with positive control GalNAc", "setting": "[2]; HepG2, flow cytometry", "result": "significantly higher than uptake of the positive control GalNAc"},
      {"measurement": "Internalization (cell uptake) in HepG2", "setting": "[2]; fluorescein-labeled compounds, flow cytometry, 2 hours", "result": "significantly higher in HepG2 cells compared to in HEK293 cells"},
      {"measurement": "Kd", "setting": "ASGPR", "result": 34, "unit": "nM"}
    ]}
  ]
}
